Experimental findings from US12358859B2, “Series of compounds for treatment of skin diseases and other conditions” (Unigen, Inc., priority 2018, dated 2025) are described below.

In this data set the test system is reconstructed skin (keratinocytes and melanocytes). Nature of the data set: Reconstructed human skin model (Melanoderm). It counts as cell-based. The settings on record: for significant whitening of melanocytes observed as early as: after the beginning of the experiment (data not shown); for alterations of cell morphology / whitening effects on skin melanocytes: applied topically for 15 days; for whitening effects on melanocytes: topical, photographs after 14 days; for toxicity on reconstructed skin: at 0.05%. The procedure:
The skin whitening effects of test compounds were studied using a reconstructed skin model, Melanoderm™ provided by MatTek Corp. (Ashland, Mass.) according to the manufacturer's specifications. Briefly, normal human epidermal keratinocytes and normal human melanocytes derived from dark skin donors were co-cultured on a surface of collagen-coated membrane to form multi-layered, highly differentiated skin tissue (MEL-300-B). The tissues were maintained in the CO2, incubator at 37° C. The apical surfaces of the reconstructed skin (9 mm in diameter) were exposed to air whereas the bottom surfaces remained in contact with 5 mL of maintenance medium, containing skin differentiating factors (EPI-100-NNM-113). Test compounds were formulated in 80% propylene glycol as follows: 10 mg of each test compound was dissolved in DMSO and diluted with 80% propylene glycol (1,2-propanediol, Sigma-Aldrich) to stock concentrations. The compounds were then sterilized by passing through 0.2 um filter and diluted in sterile water/propylene glycol to final test concentrations in 0.5% DMSO, 80% propylene glycol. In addition, the following controls were used: 80% propylene glycol with 0.5% DMSO, and 1% kojic acid in 80% propylene glycol.
‘Test compounds were applied to the apical surface of the tissues as follows: 25 μl of each test compound, 25 μl of 80% propylene glycol (vehicle control), and 25 μl of 1% kojic acid (positive control). The samples were reapplied every other day for 14 days. All the samples were tested in duplicate. At the end of the experiment microscopic images were taken.
The potential skin-whitening properties of test compounds were explored in a reconstructed skin model. The model consists of normal, human-derived epidermal keratinocytes and melanocytes, which have been co-cultured to form a multilayered, highly differentiated human epidermis. In this study the melanocytes were obtained from a highly pigmented donor.
Different concentrations of test compounds, 80% propylene glycol (the vehicle control), or 1% kojic acid (positive control) were repeatedly applied topically on the surface of the reconstructed skin for 15 days. […] Photographs of skin specimen taken after 15 days of the experiment show significant dose-dependent whitening effects on melanocytes, which appear on photographs as dark dendritic cells.

In the case of `CC(C)=CCCC(C)=Cc1ccc(O)cc1` (mixture of isomers) [Compound 1, (E/Z)-4-(2,6-dimethylhepta-1,5-dienyl)phenol], the “significant whitening of melanocytes observed as early as” value is recorded as 3 days, the “alterations of cell morphology” value is “without causing any detectable alterations”, the “whitening effects on skin melanocytes” value is listed as “significant whitening effects” and the “whitening effects on melanocytes” value was “significant whitening effects”.

Regarding `CC(C)=CCC/C(C)=C/c1cc(O)cc(O)c1` [Compound 4, (E/Z)-5-(2,6-dimethylhepta-1,5-dienyl)benzene-1,3-diol], the “toxicity on reconstructed skin” value was “some toxicity” and the “whitening effects on melanocytes” value was “significant whitening effects”.

For the compound `CC(C)=CCCC(C)/C=C/c1ccc(O)cc1O` (centres unmarked) [Compound 6, (E)-4-(3,7-dimethylocta-1,6-dienyl) benzene-1,3-diol], the “significant whitening of melanocytes observed as early as” value turned out to be 3 days, the “alterations of cell morphology” value was “without causing any detectable alterations”, the “whitening effects on skin melanocytes” value is reported as “significant whitening effects” and the “whitening effects on melanocytes” value was “significant whitening effects”.

On to `CC(C)=CCCC(C)/C=C/c1cc(O)cc(O)c1` (centres unmarked) [Compound 7, (E)-5-(3,7-dimethylocta-1,6-dienyl) benzene-1,3-diol], for which the “toxicity on reconstructed skin” value is recorded as “some toxicity” and the “whitening effects on melanocytes” value is listed as “significant whitening effects”.

Regarding `CC(C)=CCCC(C)C/C=C\c1cc(O)cc(O)c1` (centres unmarked) [Compound 15, (Z)-5-(4,8-dimethylnona-1,7-dienyl) benzene-1,3-diol], the “toxicity on reconstructed skin” value was “some toxicity” and the “whitening effects on melanocytes” value is listed as “significant whitening effects”.
